Earlier results, collected in US9572829B2, “Treatment of ocular disorders” (Massachusetts Eye and Ear Infirmary, priority 2004, dated 2017).

Parameters: unit not given here
Conditions: typical value, general statement

For `C=Cc1c(C)c2cc3nc(c(CC(=O)N[C@@H](CC(=O)O)C(=O)O)c4[nH]c(cc5nc(cc1[nH]2)C(C)=C5CC)c(C)c4C(=O)O)[C@@H](CCC(=O)O)[C@@H]3C` [N-aspartyl chlorin e6], which “Time that photosensitizer persists in the target neovasculature” value (from here on “Time that photosensitizer persists”) is on record?
The value was “about twenty”.

For `CC(=O)[O-].CC(=O)[O-].CCc1c(CC)c2cc3nc(cnc4cc(OCCOCCOCCOC)c(OCCOCCOCCOC)cc4ncc4nc(cc1[n-]2)C(CCCO)=C4C)C(C)=C3CCCO.O.[Lu+3]` [lutetium texaphyrin], which “Time that photosensitizer persists” value is on record?
The value was “about twenty”.

With benzoporphyrin derivative as the molecule, how does the “Time that photosensitizer persists” value read?
The value was “about fifty”.
